Results from ChEMBL document CHEMBL1131679, “Synthesis and activity of sulfonamide-substituted 4,5-diaryl thiazoles as selective cyclooxygenase-2 inhibitors” (Bioorg Med Chem Lett, 1999).

What was measured:
[1] = biological target: T1, Prostaglandin G/H synthase 2 (Homo sapiens, UniProt P35354); assay: In vitro inhibitory activity against human Prostaglandin G/H synthase 2 (COX-2)
T1 sequence (P35354 whole entry): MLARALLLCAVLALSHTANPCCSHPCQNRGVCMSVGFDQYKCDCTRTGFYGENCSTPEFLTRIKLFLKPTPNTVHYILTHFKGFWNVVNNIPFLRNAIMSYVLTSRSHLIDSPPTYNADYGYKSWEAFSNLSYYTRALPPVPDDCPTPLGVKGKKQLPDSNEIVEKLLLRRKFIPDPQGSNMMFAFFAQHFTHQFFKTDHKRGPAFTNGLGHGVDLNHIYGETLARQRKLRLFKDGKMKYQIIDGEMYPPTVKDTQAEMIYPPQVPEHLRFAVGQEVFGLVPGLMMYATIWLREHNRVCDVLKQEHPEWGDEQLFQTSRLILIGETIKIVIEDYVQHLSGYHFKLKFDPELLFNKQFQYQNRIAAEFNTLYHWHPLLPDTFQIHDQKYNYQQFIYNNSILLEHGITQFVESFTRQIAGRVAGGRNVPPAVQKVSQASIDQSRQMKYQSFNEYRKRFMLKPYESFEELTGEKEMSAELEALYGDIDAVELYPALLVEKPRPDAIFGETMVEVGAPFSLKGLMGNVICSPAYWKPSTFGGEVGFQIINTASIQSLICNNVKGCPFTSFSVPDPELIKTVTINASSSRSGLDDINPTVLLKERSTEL

[2] = biological target: Prostaglandin G/H synthase 1 (Homo sapiens, UniProt P23219)
Prostaglandin G/H synthase 1, sequence (P23219 whole entry): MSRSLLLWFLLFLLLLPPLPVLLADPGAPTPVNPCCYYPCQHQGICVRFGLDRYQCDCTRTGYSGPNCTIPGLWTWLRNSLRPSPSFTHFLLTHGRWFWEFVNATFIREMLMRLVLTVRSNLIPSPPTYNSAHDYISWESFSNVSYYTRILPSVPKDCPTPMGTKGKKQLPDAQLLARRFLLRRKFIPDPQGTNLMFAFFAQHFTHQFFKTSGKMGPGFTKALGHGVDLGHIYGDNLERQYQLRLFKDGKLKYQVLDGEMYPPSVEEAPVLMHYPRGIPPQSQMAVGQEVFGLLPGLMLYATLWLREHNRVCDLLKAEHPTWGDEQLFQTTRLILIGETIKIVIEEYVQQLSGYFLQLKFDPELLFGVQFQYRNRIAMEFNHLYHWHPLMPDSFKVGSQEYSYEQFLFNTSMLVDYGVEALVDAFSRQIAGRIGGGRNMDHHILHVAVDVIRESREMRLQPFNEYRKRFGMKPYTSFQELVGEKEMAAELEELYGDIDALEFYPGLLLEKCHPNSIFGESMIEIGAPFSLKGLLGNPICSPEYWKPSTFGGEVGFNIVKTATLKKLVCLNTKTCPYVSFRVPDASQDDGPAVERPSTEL
Description: Inhibition of human Prostaglandin G/H synthase 1

Rattus norvegicus = assay: In vivo activity was determined by rat pouch assay at concentration of 2 mg/kg; assay type: functional

Row | SMILES | IC50 [1] [nM] | IC50 [2] [nM] | inhibition in vivo at 2 mg/kg (Rattus norvegicus) [%]
1 | COc1ccc(-c2nc(NCc3ccccc3)sc2-c2ccc(S(N)(=O)=O)cc2)cc1F | 59 | 10 | –
2 | Cc1nc(-c2ccc(S(N)(=O)=O)cc2)c(-c2ccccc2)s1 | 29 | 72500 | 7
3 | Cc1nc(-c2ccccc2)c(-c2ccc(S(N)(=O)=O)cc2)s1 | 38 | 34000 | 59
4 | COc1ccc(-c2nc(-c3ccccc3Cl)sc2-c2ccc(S(N)(=O)=O)cc2)cc1F | 2480 | > 100000 | 33
5 | Cc1nc(-c2ccc(Cl)cc2)c(-c2ccc(S(N)(=O)=O)cc2)s1 | 5 | 1840 | 42
6 | Cc1nc(-c2ccc(S(N)(=O)=O)cc2)c(-c2ccc(Br)cc2)s1 | 24 | 115000 | –
7 | COc1ccc(-c2nc(C)sc2-c2ccc(S(N)(=O)=O)cc2)cc1F | 28 | 4180 | –

The next lines start with results.

Row | IC50 [1] [nM] | IC50 [2] [nM] | SMILES | inhibition in vivo at 2 mg/kg (Rattus norvegicus) [%]
8 | 18 | 35600 | Cc1nc(-c2ccc(S(N)(=O)=O)cc2)c(-c2ccc(Cl)cc2)s1 | 30
9 | 13 | 80 | NS(=O)(=O)c1ccc(-c2sc(-c3ccccc3Cl)nc2-c2ccc(F)cc2)cc1 | 50
10 | – | 120 | NS(=O)(=O)c1ccc(-c2sc(COc3cc(Cl)cc(Cl)c3)nc2-c2ccc(F)cc2)cc1 | –
